{"source": "patent US20100092429A1", "about": "“Composition” (Danisco A/S, priority 2006, published 2010)", "key": {"[1]": {"system": "Lactobacilli and S. thermophilus", "experiment": "Growth on single carbohydrates, summary for Lactobacilli and S. thermophilus", "format": "cell-based", "conditions": "summary in words of Tables 7 and 8"}, "[2]": {"system": "Bifidobacterium lactis BI-04", "format": "cell-based", "conditions": "1 w/v-% carbohydrate, 37° C."}}, "note": "Read-outs that look alike come from different tables or passages of the source.", "data": [{"smiles": "OC[C@H]1O[C@H](O)[C@H](O)[C@@H](O)[C@@H]1O", "note": "[Glucose, Alpha-D-Glucose]", "values": [{"measurement": "fermentation of the carbohydrate by Lactobacilli and S. thermophilus", "setting": "[1]", "result": "all these bacteria fermented with glucose"}, {"measurement": "absorbance (OD 600 nm)", "setting": "[2]; Table 3 test, time 0 h", "result": 0.345}, {"measurement": "absorbance (OD 600 nm)", "setting": "[2]; Table 3 test, time 0.5 h", "result": 0.3508}, {"measurement": "absorbance (OD 600 nm)", "setting": "[2]; Table 3 test, time 1 h", "result": 0.3557}, {"measurement": "absorbance (OD 600 nm)", "setting": "[2]; Table 3 test, time 1.5 h", "result": 0.3612}, {"measurement": "absorbance (OD 600 nm)", "setting": "[2]; Table 3 test, time 2 h", "result": 0.366}, {"measurement": "absorbance (OD 600 nm)", "setting": "[2]; Table 3 test, time 2.5 h", "result": 0.3717}, {"measurement": "absorbance (OD 600 nm)", "setting": "[2]; Table 3 test, time 3 h", "result": 0.3794}, {"measurement": "absorbance (OD 600 nm)", "setting": "[2]; Table 3 test, time 3.5 h", "result": 0.3884}, {"measurement": "absorbance (OD 600 nm)", "setting": "[2]; Table 3 test, time 4 h", "result": 0.4001}, {"measurement": "absorbance (OD 600 nm)", "setting": "[2]; Table 3 test, time 4.5 h", "result": 0.4149}, {"measurement": "absorbance (OD 600 nm)", "setting": "[2]; Table 3 test, time 5 h", "result": 0.4363}, {"measurement": "absorbance (OD 600 nm)", "setting": "[2]; Table 3 test, time 5.5 h", "result": 0.4576}, {"measurement": "absorbance (OD 600 nm)", "setting": "[2]; Table 3 test, time 6 h", "result": 0.4843}, {"measurement": "absorbance (OD 600 nm)", "setting": "[2]; Table 3 test, time 6.5 h", "result": 0.5156}, {"measurement": "absorbance (OD 600 nm)", "setting": "[2]; Table 3 test, time 7 h", "result": 0.549}, {"measurement": "absorbance (OD 600 nm)", "setting": "[2]; Table 3 test, time 7.5 h", "result": 0.5855}, {"measurement": "absorbance (OD 600 nm)", "setting": "[2]; Table 3 test, time 8 h", "result": 0.6269}, {"measurement": "absorbance (OD 600 nm)", "setting": "[2]; Table 3 test, time 8.5 h", "result": 0.6688}, {"measurement": "absorbance (OD 600 nm)", "setting": "[2]; Table 3 test, time 9 h", "result": 0.7126}, {"measurement": "absorbance (OD 600 nm)", "setting": "[2]; Table 3 test, time 9.5 h", "result": 0.7528}, {"measurement": "absorbance (OD 600 nm)", "setting": "[2]; Table 3 test, time 10 h", "result": 0.7957}, {"measurement": "absorbance (OD 600 nm)", "setting": "[2]; Table 3 test, time 10.5 h", "result": 0.8301}, {"measurement": "absorbance (OD 600 nm)", "setting": "[2]; Table 3 test, time 11 h", "result": 0.8645}, {"measurement": "absorbance (OD 600 nm)", "setting": "[2]; Table 3 test, time 11.5 h", "result": 0.897}, {"measurement": "absorbance (OD 600 nm)", "setting": "[2]; Table 3 test, time 12 h", "result": 0.927}, {"measurement": "absorbance (OD 600 nm)", "setting": "[2]; Table 3 test, time 12.5 h", "result": 0.9517}, {"measurement": "absorbance (OD 600 nm)", "setting": "[2]; Table 3 test, time 13 h", "result": 0.9725}, {"measurement": "absorbance (OD 600 nm)", "setting": "[2]; Table 3 test, time 13.5 h", "result": 0.9899}, {"measurement": "absorbance (OD 600 nm)", "setting": "[2]; Table 3 test, time 14 h", "result": 1.0031}, {"measurement": "absorbance (OD 600 nm)", "setting": "[2]; Table 3 test, time 14.5 h", "result": 1.0267}, {"measurement": "absorbance (OD 600 nm)", "setting": "[2]; Table 3 test, time 15 h", "result": 1.0406}, {"measurement": "absorbance (OD 600 nm)", "setting": "[2]; Table 3 test, time 15.5 h", "result": 1.05}, {"measurement": "absorbance (OD 600 nm)", "setting": "[2]; Table 3 test, time 16 h", "result": 1.063}, {"measurement": "absorbance (OD 600 nm)", "setting": "[2]; Table 3 test, time 16.5 h", "result": 1.0769}, {"measurement": "absorbance (OD 600 nm)", "setting": "[2]; Table 3 test, time 17 h", "result": 1.0841}, {"measurement": "absorbance (OD 600 nm)", "setting": "[2]; Table 3 test, time 17.5 h", "result": 1.1062}, {"measurement": "absorbance (OD 600 nm)", "setting": "[2]; Table 3 test, time 18 h", "result": 1.1201}, {"measurement": "absorbance (OD 600 nm)", "setting": "[2]; Table 3 test, time 18.5 h", "result": 1.1494}, {"measurement": "absorbance (OD 600 nm)", "setting": "[2]; Table 3 test, time 19 h", "result": 1.1729}, {"measurement": "absorbance (OD 600 nm)", "setting": "[2]; Table 3 test, time 19.5 h", "result": 1.1942}, {"measurement": "absorbance (OD 600 nm)", "setting": "[2]; Table 3 test, time 20 h", "result": 1.2233}, {"measurement": "absorbance (OD 600 nm)", "setting": "[2]; Table 3 test, time 20.5 h", "result": 1.2352}, {"measurement": "absorbance (OD 600 nm)", "setting": "[2]; Table 3 test, time 21 h", "result": 1.27}, {"measurement": "absorbance (OD 600 nm)", "setting": "[2]; Table 3 test, time 21.5 h", "result": 1.2882}, {"measurement": "absorbance (OD 600 nm)", "setting": "[2]; Table 3 test, time 22 h", "result": 1.2935}, {"measurement": "absorbance (OD 600 nm)", "setting": "[2]; Table 3 test, time 22.5 h", "result": 1.312}, {"measurement": "absorbance (OD 600 nm)", "setting": "[2]; Table 3 test, time 23 h", "result": 1.3311}, {"measurement": "absorbance (OD 600 nm)", "setting": "[2]; Table 3 test, time 23.5 h", "result": 1.3389}, {"measurement": "absorbance (OD 600 nm)", "setting": "[2]; Table 3 test, time 24 h", "result": 1.3477}, {"measurement": "absorbance (OD 600 nm)", "setting": "[2]; Table 4 further test, time 0 h", "result": 0.358}, {"measurement": "absorbance (OD 600 nm)", "setting": "[2]; Table 4 further test, time 0.5 h", "result": 0.3615}, {"measurement": "absorbance (OD 600 nm)", "setting": "[2]; Table 4 further test, time 1 h", "result": 0.3671}, {"measurement": "absorbance (OD 600 nm)", "setting": "[2]; Table 4 further test, time 1.5 h", "result": 0.3772}, {"measurement": "absorbance (OD 600 nm)", "setting": "[2]; Table 4 further test, time 2 h", "result": 0.3899}, {"measurement": "absorbance (OD 600 nm)", "setting": "[2]; Table 4 further test, time 2.5 h", "result": 0.407}, {"measurement": "absorbance (OD 600 nm)", "setting": "[2]; Table 4 further test, time 3 h", "result": 0.4301}, {"measurement": "absorbance (OD 600 nm)", "setting": "[2]; Table 4 further test, time 3.5 h", "result": 0.4552}, {"measurement": "absorbance (OD 600 nm)", "setting": "[2]; Table 4 further test, time 4 h", "result": 0.4845}, {"measurement": "absorbance (OD 600 nm)", "setting": "[2]; Table 4 further test, time 4.5 h", "result": 0.5215}, {"measurement": "absorbance (OD 600 nm)", "setting": "[2]; Table 4 further test, time 5 h", "result": 0.5712}, {"measurement": "absorbance (OD 600 nm)", "setting": "[2]; Table 4 further test, time 5.5 h", "result": 0.6208}, {"measurement": "absorbance (OD 600 nm)", "setting": "[2]; Table 4 further test, time 6 h", "result": 0.6769}, {"measurement": "absorbance (OD 600 nm)", "setting": "[2]; Table 4 further test, time 6.5 h", "result": 0.7519}, {"measurement": "absorbance (OD 600 nm)", "setting": "[2]; Table 4 further test, time 7 h", "result": 0.824}, {"measurement": "absorbance (OD 600 nm)", "setting": "[2]; Table 4 further test, time 7.5 h", "result": 0.8944}, {"measurement": "absorbance (OD 600 nm)", "setting": "[2]; Table 4 further test, time 8 h", "result": 0.9606}, {"measurement": "absorbance (OD 600 nm)", "setting": "[2]; Table 4 further test, time 8.5 h", "result": 1.0277}, {"measurement": "absorbance (OD 600 nm)", "setting": "[2]; Table 4 further test, time 9 h", "result": 1.0871}, {"measurement": "absorbance (OD 600 nm)", "setting": "[2]; Table 4 further test, time 9.5 h", "result": 1.1209}, {"measurement": "absorbance (OD 600 nm)", "setting": "[2]; Table 4 further test, time 10 h", "result": 1.1556}, {"measurement": "absorbance (OD 600 nm)", "setting": "[2]; Table 4 further test, time 10.5 h", "result": 1.189}, {"measurement": "absorbance (OD 600 nm)", "setting": "[2]; Table 4 further test, time 11 h", "result": 1.2217}, {"measurement": "absorbance (OD 600 nm)", "setting": "[2]; Table 4 further test, time 11.5 h", "result": 1.2528}, {"measurement": "absorbance (OD 600 nm)", "setting": "[2]; Table 4 further test, time 12 h", "result": 1.2826}, {"measurement": "absorbance (OD 600 nm)", "setting": "[2]; Table 4 further test, time 12.5 h", "result": 1.3101}, {"measurement": "absorbance (OD 600 nm)", "setting": "[2]; Table 4 further test, time 13 h", "result": 1.3368}, {"measurement": "absorbance (OD 600 nm)", "setting": "[2]; Table 4 further test, time 13.5 h", "result": 1.3586}, {"measurement": "absorbance (OD 600 nm)", "setting": "[2]; Table 4 further test, time 14 h", "result": 1.3745}, {"measurement": "absorbance (OD 600 nm)", "setting": "[2]; Table 4 further test, time 14.5 h", "result": 1.388}, {"measurement": "absorbance (OD 600 nm)", "setting": "[2]; Table 4 further test, time 15 h", "result": 1.4068}, {"measurement": "absorbance (OD 600 nm)", "setting": "[2]; Table 4 further test, time 15.5 h", "result": 1.4166}, {"measurement": "absorbance (OD 600 nm)", "setting": "[2]; Table 4 further test, time 16 h", "result": 1.43}, {"measurement": "absorbance (OD 600 nm)", "setting": "[2]; Table 4 further test, time 16.5 h", "result": 1.4441}, {"measurement": "absorbance (OD 600 nm)", "setting": "[2]; Table 4 further test, time 17 h", "result": 1.4486}, {"measurement": "absorbance (OD 600 nm)", "setting": "[2]; Table 4 further test, time 17.5 h", "result": 1.4526}, {"measurement": "absorbance (OD 600 nm)", "setting": "[2]; Table 4 further test, time 18 h", "result": 1.4654}, {"measurement": "absorbance (OD 600 nm)", "setting": "[2]; Table 4 further test, time 18.5 h", "result": 1.4724}, {"measurement": "absorbance (OD 600 nm)", "setting": "[2]; Table 4 further test, time 19 h", "result": 1.472}, {"measurement": "absorbance (OD 600 nm)", "setting": "[2]; Table 4 further test, time 19.5 h", "result": 1.4796}, {"measurement": "absorbance (OD 600 nm)", "setting": "[2]; Table 4 further test, time 20 h", "result": 1.4864}, {"measurement": "absorbance (OD 600 nm)", "setting": "[2]; Table 4 further test, time 20.5 h", "result": 1.491}, {"measurement": "absorbance (OD 600 nm)", "setting": "[2]; Table 4 further test, time 21 h", "result": 1.4946}, {"measurement": "absorbance (OD 600 nm)", "setting": "[2]; Table 4 further test, time 21.5 h", "result": 1.4988}, {"measurement": "absorbance (OD 600 nm)", "setting": "[2]; Table 4 further test, time 22 h", "result": 1.5015}, {"measurement": "absorbance (OD 600 nm)", "setting": "[2]; Table 4 further test, time 22.5 h", "result": 1.5046}, {"measurement": "absorbance (OD 600 nm)", "setting": "[2]; Table 4 further test, time 23 h", "result": 1.5061}, {"measurement": "absorbance (OD 600 nm)", "setting": "[2]; Table 4 further test, time 23.5 h", "result": 1.5092}, {"measurement": "absorbance (OD 600 nm)", "setting": "[2]; Table 4 further test, time 24 h", "result": 1.5092}]}]}
